In patent US6416738B1, “Pretargeting methods and compounds” (NeoRx Corporation, priority 1973, dated 2002):
Ends that are not written are not given here.

Legend:
[1] = test system: HA peptide; details: physiological conditions, concentrations as low as 10^−13 M; cited from earlier work
[2] = Time dependent cleavage of DOTA-biotin conjugates in serum (% avidin binding); format: in vitro ADME
Description: The difference in serum stability between DOTA-LC-biotin and DOTA-SC-biotin might be explained by the fact that the SC derivative contains an aromatic amide linkage in contrast to the aliphatic amide linkage of the LC derivative, with the aliphatic amide linkage being more readily recognized by enzymes as a substrate therefor. This argument cannot apply to biotinidase, however, because biotinidase very efficiently cleaves aromatic amides. In fact, it is recognized that the simplest and most commonly employed biotinidase activity measuring method uses N-(d-biotinyl)-4-aminobenzoate (BPABA) as a substrate, with the hydrolysis of BPABA resulting in the liberation of biotin and 4-aminobenzoate (PABA). See, for example, B. Wolf, et al., “Methods in Enzymology,” pp. 103-111, Academic Press Inc., 1990. Consequently, one would predict that DOTA-SC-biotin, like its LC counterpart, would be a biotinidase substrate. […] A series of DOTA-biotin conjugates was therefore synthesized by the present inventors to determine which structural features conferred serum stability to the conjugates.

[3] = Blood clearance and limited biodistribution of orosomucoid and asialoorosomucoid; details: for blood level: I-125-labeled protein i.v.
Experimental: The asialoorosomucoid and orosomucoid starting material were radiolabeled with I-125 using PIP technology, as described in Example IV above.
In addition, two animals receiving each compound were sacrificed at 5 minutes post-administration and limited biodistributions were performed.

[4] = target: T1, Streptavidin-agarose beads (Streptomyces avidinii, UniProt P22629); assay: Streptavidin-agarose bead binding; details: for Pellet: radioactivity bound to streptavidin-agarose beads; for Supernatant: radioactivity not bound to streptavidin-agarose beads
T1 construct: purchased Sigma S-1638
T1 sequence (P22629 25-183): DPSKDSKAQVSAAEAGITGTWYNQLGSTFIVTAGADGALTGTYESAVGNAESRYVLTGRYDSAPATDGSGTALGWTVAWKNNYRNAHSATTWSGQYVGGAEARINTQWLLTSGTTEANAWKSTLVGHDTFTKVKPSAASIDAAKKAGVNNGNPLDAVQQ
Experimental: 100 μl of 0.2 M sodium carbonate buffer, pH 9.2, was added to 2 mg (in 1.00 ml PBS) of PIP-125-labeled orosomucoid and to 2 mg PIP-125-labeled asialoorosomucoid. 60 μl of a 1.85 mg/ml solution of NHS-amino caproate biotin in DMSO was then added to each compound. The reaction mixtures were vortexed and allowed to sit at room temperature for 45 minutes. The material was purified by size exclusion column chromatography (PD-10, Pharmacia) and eluted with PBS. 1.2 ml fractions were taken, with fractions 4 and 5 containing the majority of the applied radioactivity (>95%). Streptavidin-agarose beads (Sigma S-1638) or -pellets were washed with PBS, and 20 μg of each biotinylated, radiolabeled protein was added to 400 μl of beads and 400 μl of PBS, vortexed for 20 seconds and centrifuged at 14,000 rpm for 5 minutes. The supernatant was removed and the pellets were washed with 400 μl PBS. This wash procedure was repeated twice more, and the combined supernatants were assayed by placing them in a dosimeter versus their respective pellets.

[5] = test system: LS-180 tumor xenografts; assay: Tumor uptake of PIP-biocytin after NR-LU-10-streptavidin; format: in vivo, nude mice
Experimental: The following data are based on experimentation with tumored nude mice (100 mg LS-180 tumor xenografts implanted subcutaneously 7 days prior to study) that received, at time 0, 200 μg of I-125 labeled NR-LU-10-Streptavidin conjugate (950 pmol), as discussed in Example XI above. At 24 hours, the mice received an i.v. injection of PIP-I-131-biocytin (40 μCi) and an amount of cold carrier PIP-I-127 biocytin corresponding to doses of 42 μg (69,767 pmol), 21 μg (34,884 pmol), 5.7 μg (9468 pmol), 2.85 μg (4734 pmol) or 0.5 μg (830 pmol).

[6] = test system: LS-180 tumor; assay: Two-step pretargeting in LS-180 animal model
Experimental: and perform biodistributions at 2, 6, 24, 72, 120 hours after injection of radiolabeled biotinyl molecule

[7] = test system: LS-180 tumor xenografts; assay: Two-step pretargeting with NR-LU-10-avidin and 131I-PIP-biocytin; format: in vivo, nude mice; details: 200 μg NR-LU-10-avidin at t=0, 42 μg 131I-PIP-biocytin at t=36 h
Experimental: ^131I-PIP-biocytin was evaluated in a two-step pretargeting procedure in tumor-bearing mice. […] At t=0, the mice were injected with 200 μg of NR-LU-10-avidin conjugate labeled with ^125I using PIP-NHS (see Example IV.A.). At t=36 h, the mice received 42 μg of ^131I-PIP-biocytin. […] The described radiohalogenated biotin compounds are amenable to the same types of modifications described in Example VI above for ^186Re-chelate-biotin conjugates. In particular, the following PIP-polylysine-biotin molecule is made by trace labeling polylysine with ^125I-PIP, followed by extensive biotinylation of the polylysine. [drawing 47]

[8] = Excretion of neutral MAMA chelate-biotin conjugate; details: in vivo
Description: Although the net overall charge of the conjugate is neutral, the polycarboxylate nature of the molecule generates regions of hydrophilicity and hydrophobicity. By altering the number and nature of the carboxylate groups within the conjugate, excretion may be shifted from kidney to gastrointestinal routes. For instance, neutral compounds are generally cleared by the kidneys; anionic compounds are generally cleared through the GI system.

[9] = test system: LS-180 human colon tumor xenografts; assay: Three-step pretargeting in LS-180 xenograft model; details: for tumor uptake: antibody at time 0, avidin at 24 h
Description: The experimental protocol was as follows:
The three radiolabels employed in this protocol are capable of detection in the presence of each other. It is also noteworthy that the sizes of the three elements involved are logarithmically different—antibody≅150,000; avidin≅66,000; and biotin≅1,000.

For “pGlu-Pto-Pro-Gly-Gly-Ser-Lys-Val-Ile-Leu-Phe (PGGSKVILF; not fully specified (N-terminus); printed as pGlu-Pto-Pro-Gly-Gly-Ser-Lys-Val-Ile-Leu-Phe) [HA peptide]”, the “dissociation of HA dimer into monomers” value [1] is given as “does not dissociate into monomers”.
In the case of `O=C(O)CN1CCN(CCOO)CCN(CCOO)CCN(CC(=O)O)C(Cc2ccc(NC(=O)CCCCC3SCC4NC(=O)NC43)cc2)C1` (centres unmarked) [Y-90-SC DOTA-Biotin, metal not drawn], the “% Avidin Binding” value ([2]; 20 Hours at 37° C.) is reported as 60%, the “% Avidin Binding” value ([2]; 60 Minutes at 37° C.) is reported as 98% and the serum stability ([2]; in comparison to DOTA-LC-biotin) is reported as “significantly improved serum stability”.
For “orosomucoid: human alpha-1 acid glycoprotein [reference compound]”, the blood level ([3]; 5 minutes post-administration) was 78%, the Pellet [4] was 10% and the Supernatant [4] was 90%.
In the case of `O=C(CCCCC1SCC2NC(=O)NC21)NCCCC[C@H](NC(=O)c1ccc([125I])cc1)C(=O)O` (some centres unmarked) [PIP-Biocytin, p-[I-125]iodobenzoylbiocytin], the “% Avidin Binding” value ([2]; 5 Minutes at 37° C.) is reported as 75%, the “% Avidin Binding” value ([2]; 15 Minutes at 37° C.) is reported as 57% and the “% Avidin Binding” value ([2]; 30 Minutes at 37° C.) is reported as 31%. The peak tumor uptake ([5]; 0.5 μg dose, 120 hour time point (96 hours after PIP-biocytin)) was 85.0 % ID/G, the tumor localization ([5]; three highest doses (42, 21, 5.7 μg), 4 hours after PIP-biocytin injection) was “about 600 pmol/g” and the tumor uptake ([6]; 40 hour time point, PIP-BT at 37 hours following LU-10-StrAv) was “above 500 pMOL/G”. For the same molecule, the peak tumor uptake ([6]; 45 hours post-LU-10-StrAv administration) was “about 700 pMOL/G” and the “131I-PIP-biocytin molecules per avidin molecule at tumor” value [7] was “≈ 1.5”.
For `CN(CCSCc1ccccc1)CC(CCC(=O)NCCNC(=O)CC1SCC2NC(=O)NC21)NC(=O)CS` (centres unmarked) [neutral MAMA chelate-biotin conjugate], the kidney excretion [8] was “superior kidney excretion”.
For “Avidin: avidin (MW≈66 kD), radiolabeled with 131I/PIP-NHS”, the tumor uptake ([9]; at 25 h) was “about 250 pmol/g”, the tumor uptake ([9]; at 32 h) was about 150 pmol/g and the tumor uptake ([9]; at 48 h) was about 50 pmol/g. The tumor uptake ([9]; at 120 h) was about 0 pmol/g and the “injected dose cleared from the blood” value ([9]; mouse, in vivo) was “greater than 90%”.
With “asialoorosomucoid: orosomucoid treated with neuraminidase” the “uptake in the liver” value ([3]; 5 minutes post-administration) was 86%, the blood level ([3]; 5 minutes post-administration) was 0.4% and the blood clearance ([3]; 5 minutes to 4 hours post-administration) was “clearing more rapidly than its orosomucoid counterpart”. The Pellet [4] was 8.0% and the Supernatant [4] was 92%.
